The text below walks through data of patent US20100210467A1, “AGENT FOR IMPROVING SUGARCANE BRIX AND METHOD OF PROMOTING SUGARCANE RIPENING USING THE SAME” (Kumiai Chemical Industry Co., Ltd., priority 2007, published 2010).

Holding throughout (assay type): in vivo
The test system of assay [1] is sugarcane. Briefly: Example 2: sugar content of sugarcane stem juice after spraying from an aircraft, field test in Brazil. Particulars: 50 g/ha; after 30 days of spraying. The protocol:
(§1) In accordance with “NORMAS DE AVALIAçÃO DA […] DA CANA-DE-AçÚCAR” used in Brazilian sugar refining plants as Standard for quality evaluation of sugarcane, the analysis on the sugar content in the squeezed juice of sugarcane stem was carried out for Brix value, sugar content in sugarcane (PC), and total sugar amount recoverable from sugarcane stem (ATR) as follows.
(§2) Brix was measured according to a digital refractometer. PC was calculated according to the equation (1). ATR was calculated according to the equation (5).
At the time the Brix value of sugarcane grown in a sugarcane cultivated area in Brazil (an average Brix value in the harvesttime being 21%) became 81% of the aforesaid average Brix value, a bispyribac-sodium formulation (a commercially available product, a tradename “NOMINEE 400SC”) was diluted with water so that the amount of the effective ingredient in 30 liters of the spraying liquid could be equal to the used amount shown in Table 3, and the liquid was sprayed over the test area from an air-craft at a rate of 30 liters per hectare.
In a control area, a known fluazifop formulation (a commercially available product, a tradename “[…]”) was similarly sprayed.
Next, 5 individual sugarcanes were cut from 5 locations in each area, i.e. 25 sugarcanes from each area, on the initial day of spraying and after 30 days of spraying, and thereafter the stems were squeezed and sugar was recovered from the juice to obtain the yield. The yield after 30 days of spraying was compared with the yield of the initial day of spraying and the rate of increase (%) was calculated. The analysis on the sugar content in the squeezed juice of sugarcane stems was carried out similarly as in the case of Example 1.

In assay [2] the test system is sugarcane. The assay can be described thus: Example 4: sugar content of sugarcane stem juice after pyribenzoxim back pack spraying, field test in Brazil. On the procedure: as §1, §2
At the time the Brix value of sugarcane grown in a sugarcane cultivated area in Brazil (an average Brix value in the harvesttime being 20%) became 86% of the aforesaid average Brix value, a pyribenzoxim formulation (a tradename “PYANCHOR”) was diluted with water so that the amount of the effective ingredient in 105 liters of the spraying liquid could be equal to the used amount shown in Table 6, and the liquid was sprayed above the plant by the aid of a CO2-pressurized back pack sprayer to the test area at a rate of 105 liters per hectare.
(§3) In a control area, a known sulfometuron-methyl formulation (a commercially available product, a tradename “CURAVIAL”) was similarly sprayed.
(§4) Next, 20 individual sugarcanes were cut from each area on the initial day of spraying, after 15 days of spraying, after 30 days of spraying and after 45 days of spraying, and thereafter the stems were squeezed and sugar was recovered from the juice to obtain the yield. Each yield was compared with the yield of the initial day of spraying and the rate of increase (%) was calculated. The analysis on the sugar content in the squeezed juice of sugarcane stems was carried out similarly as in the case of Example 1.

Assay [3] relates to sugarcane. The assay can be described thus: Example 3: sugar content of sugarcane stem juice after pyrimisulfan back pack spraying, field test in Brazil. On the procedure: as §1, §2
At the time the Brix value of sugarcane grown in a sugarcane cultivated area in Brazil (an average Brix value in the harvesttime being 18%) became 88% of the aforesaid average Brix value, pyrimisulfan (pyrimisulfan prepared by a method disclosed in JP2000-44546A) was diluted with water so that the amount of the effective ingredient in 105 liters of the spraying liquid could be equal to the used amount shown in Table 4, and the liquid was sprayed above the plant by the aid of a CO2-pressurized back pack sprayer to the test area at a rate of 105 liters per hectare.
as §3, §4

For assay [4], the system named is sugarcane. Briefly: Example 5: sugar content of sugarcane stem juice after bispyribac-sodium and/or gibberellin spraying, field test in Brazil. The protocol:
as §1, §2
At the time the Brix value of sugarcane grown in a sugarcane cultivated area in Brazil (an average Brix value in the harvesttime being 18%) became 88% of the aforesaid average Brix value, a bispyribac-sodium formulation (a commercially available product, a tradename, “NOMINEE 400SC”) and a gibberellin formulation (a commercially available product, a tradename, “PRO-GIBB”) were admixed together and diluted with water or separately diluted with water so that the amount of the effective ingredient in 105 liters of each of the spraying liquids could be equal to the used amount shown in Table 8, and each liquid was sprayed above the plant by the aid of a CO2-pressurized back pack sprayer to the test area at a rate of 105 liters per hectare.
as §3, §4

Assay [5] relates to sugarcane. Briefly: Example 1: sugar content of sugarcane stem juice after power-sprayer application, field test in Brazil. Particulars: 15 g/ha. On the procedure: With respect to sugarcane grown in a sugarcane cultivated area in Brazil (an average Brix value in the harvesttime being 18%), a juice was collected from 5 middle internodes selected at random in the sugarcane stem and the Brix value was measured according to a usual method. At the time the measured Brix value became 82% of the aforementioned average Brix value, a bispyribac-sodium formulation (a commercially available product, a tradename “NOMINEE 400SC”) was diluted with water so that the amount of the effective ingredient in 74 liters of the spraying liquid could be equal to the used amount shown in Table 1. The liquid was then sprayed above the plant by the aid of a power sprayer to a test area at a rate of 74 liters per hectare.
as §3
Next, 10 individual sugarcanes were cut from each area on the initial day of spraying, after 30 days of spraying and after 45 days of spraying, and thereafter the stem was squeezed and sugar was recovered from the juice to obtain the yield. Each yield was compared with the yield of the initial day of spraying and the rate of increase (%) was calculated.
as §1, §2
S denotes a sugar content in the extracted liquid and is calculated according to the equation (2). F denotes an amount of fibers in sugarcane and is calculated according to the equation (3). C denotes a conversion coefficient from the sugar content in the extracted liquid to an absolute amount and is calculated according to the equation (4).
LAI denotes a measured value by the digital saccharimeter after clarification of the juice by a clarifying mixture made from aluminum.
PBU denotes the mass of a wet bagasse exhausted from a pressing machine in the squeezed step of sugarcane stem.
ARC denotes an amount of reducing sugar of sugarcane and is calculated from the following equation (6).
AR denotes an amount of reducing sugar in the extracted liquid and is calculated from the following equation (7).

Where [6] appears, read: 40 g/ha, after 15 days of spraying.
The mark [7] stands for this setting: 40 g/ha, after 30 days of spraying.
The mark [8] stands for this setting: 40 g/ha, after 45 days of spraying.
Setting [9] is: 15 g/ha, after 15 days of spraying.
[10] abbreviates: 15 g/ha, after 30 days of spraying.
Where [11] appears, read: 15 g/ha, after 45 days of spraying.
Where [12] appears, read: 10 g/ha, after 15 days of spraying.
Where [13] appears, read: 10 g/ha, after 30 days of spraying.
[14] abbreviates: 10 g/ha, after 45 days of spraying.

Take `CC(Oc1ccc(Oc2ccc(C(F)(F)F)cn2)cc1)C(=O)O` (stereo not drawn) [Fluazifop, fluazifop]: in the assay with sugarcane [1], the “ATR increased rate from the initial day of spraying” value (“ATR increased rate” for short) is 20.2%; the “Brix increased rate from the initial day of spraying” value (shortened to “Brix increased rate”) amounted to 18.1%; the “Concentration of soluble solid matter, Brix” value (“Concentration” for short) amounted to 20.5%; the “PC increased rate from the initial day of spraying” value was 22.0%. Moreover, in the assay with sugarcane [1], the “Sugar content in sugarcane, PC” value stood at 15.1% and the “Total sugar amount recoverable from 1 kg of stem, ATR” value (shortened to “Total sugar amount recoverable”) is reported as 146.0 g.

As to `COc1cc(OC)nc(Oc2cccc(Oc3nc(OC)cc(OC)n3)c2C(=O)ON=C(c2ccccc2)c2ccccc2)n1` [Pyribenzoxim, pyribenzoxim], in the assay with sugarcane [2] (setting [6]), the “ATR increased rate” value was 14.2%; the “Brix increased rate” value worked out at 10.9%; the “Concentration” value turned out to be 17.8%; the “Total sugar amount recoverable” value stood at 128.1 g. Further, in the assay on sugarcane [2] (setting [7]), the “ATR increased rate” value was determined as 10.2%; the “Brix increased rate” value is 9.1%; the “Concentration” value turned out to be 17.5%; the “Total sugar amount recoverable” value is recorded as 123.6 g. In the assay with sugarcane [2] (setting [8]), the “ATR increased rate” value was 22.0%; the “Brix increased rate” value was found to be 19.7%; the “Concentration” value came out at 19.2%; the “Total sugar amount recoverable” value is 136.8 g.

In the case of `COCc1cccc(C(O)c2nc(OC)cc(OC)n2)c1NS(=O)(=O)C(F)F` (stereo not drawn) [Pyrimisulfan, pyrimisulfan], in the assay with sugarcane [3] (setting [6]), the “ATR increased rate” value is listed as 5.5%; the “Brix increased rate” value is on record as 5.8%; the “Concentration” value was 17.4%; the “Total sugar amount recoverable” value is reported as 120.1 g. For the same molecule, in the assay with sugarcane [3] (setting [7]), the “ATR increased rate” value is 9.5%; the “Brix increased rate” value was found to be 7.6%; the “Concentration” value was determined as 17.7%; the “Total sugar amount recoverable” value is given as 124.6 g. Moreover, in the assay with sugarcane [3] (setting [8]), the “ATR increased rate” value is 12.6%; the “Brix increased rate” value came out at 8.2%; the “Concentration” value was found to be 17.8%; the “Total sugar amount recoverable” value was determined as 128.1 g.

On to `COC(=O)c1ccccc1S(=O)(=O)NC(=O)Nc1nc(C)cc(C)n1` [Sulfometuron-methyl, sulfometuron-methyl], for which the “ATR increased rate” value was −3.2% with sugarcane [2] (setting [9]); 9.9% with sugarcane [2] (setting [10]); 19.0% in the assay with sugarcane [2] (setting [11]); 1.7% with sugarcane [4] (setting [9]); 8.1% in the assay on sugarcane [4] (setting [10]); −0.6% in the assay on sugarcane [4] (setting [11]). The “ATR increased rate” value in the assay on sugarcane [3] (setting [9]) is given as 1.7%; in the assay with sugarcane [3] (setting [10]) it was 8.1%; with sugarcane [3] (setting [11]), −0.6%; in the assay on sugarcane [5] (after 30 days of spraying), 21.9%; in the assay on sugarcane [5] (after 45 days of spraying), 31.2%. The “Brix increased rate” value is reported as −5.4% in the assay on sugarcane [2] (setting [9]); 9.2% in the assay with sugarcane [2] (setting [10]); 17.2% with sugarcane [2] (setting [11]); 1.2% in the assay with sugarcane [4] (setting [9]); 6.4% with sugarcane [4] (setting [10]); −1.8% in the assay on sugarcane [4] (setting [11]). Further, the “Brix increased rate” value with sugarcane [3] (setting [9]) is 1.2%; in the assay on sugarcane [3] (setting [10]), 6.4%; in the assay on sugarcane [3] (setting [11]), −1.8%; in the assay with sugarcane [5] (after 30 days of spraying) it was 21.4%; in the assay with sugarcane [5] (after 45 days of spraying), 29.6%. For the same molecule, the “Concentration” value worked out at 16.5% in the assay on sugarcane [2] (setting [9]); 19.1% in the assay on sugarcane [2] (setting [10]); 20.5% in the assay on sugarcane [2] (setting [11]); 16.7% in the assay on sugarcane [4] (setting [9]); 17.6% with sugarcane [4] (setting [10]); 16.2% in the assay with sugarcane [4] (setting [11]). The “Concentration” value in the assay on sugarcane [3] (setting [9]) is 16.7%; with sugarcane [3] (setting [10]) it was 17.6%; in the assay on sugarcane [3] (setting [11]) it was 16.2%; with sugarcane [5] (after 30 days of spraying) it was 19.2%; in the assay with sugarcane [5] (after 45 days of spraying), 20.5%. In addition, the “Total sugar amount recoverable” value is reported as 120.1 g in the assay with sugarcane [2] (setting [9]); 136.3 g in the assay on sugarcane [2] (setting [10]); 147.6 g in the assay with sugarcane [2] (setting [11]); 117.0 g in the assay with sugarcane [4] (setting [9]); 124.5 g in the assay with sugarcane [4] (setting [10]); 114.4 g in the assay with sugarcane [4] (setting [11]). In addition, the “Total sugar amount recoverable” value in the assay with sugarcane [3] (setting [9]) was found to be 117.0 g; with sugarcane [3] (setting [10]), 124.5 g; with sugarcane [3] (setting [11]), 114.4 g; in the assay on sugarcane [5] (after 30 days of spraying) it was 138.1 g; with sugarcane [5] (after 45 days of spraying) it was 148.7 g. The “PC increased rate from the initial day of spraying” value in the assay with sugarcane [5] (after 30 days of spraying) amounted to 24.3%; in the assay on sugarcane [5] (after 45 days of spraying), 35.1%. For the same molecule, the “Sugar content in sugarcane, PC” value stood at 13.9% with sugarcane [5] (after 30 days of spraying) and 15.1% in the assay with sugarcane [5] (after 45 days of spraying).

Consider gibberellin, for which, in the assay on sugarcane [4] (setting [12]), the “ATR increased rate” value is 5.3%; the “Brix increased rate” value was 5.5%; the “Concentration” value was found to be 17.2%; the “Total sugar amount recoverable” value is 120.5 g. Also, in the assay on sugarcane [4] (setting [13]), the “ATR increased rate” value is 11.7%; the “Brix increased rate” value is listed as 8.9%; the “Concentration” value is on record as 17.8%; the “Total sugar amount recoverable” value was determined as 127.9 g. For the same molecule, in the assay with sugarcane [4] (setting [14]), the “ATR increased rate” value was found to be 3.8%; the “Brix increased rate” value is recorded as 3.1%; the “Concentration” value is 16.8%; the “Total sugar amount recoverable” value amounted to 118.8 g.
